Laboratory results from patent US5843916A, “Cyclic amp analogues, individually and in pairs, to inhibit neoplastic cell growth” (priority 1994, dated 1998).
Entries after “also recorded” stand apart in the source; their conditions may differ.

Assays:
[1] = test system: MCF-7ras breast cancer cell line; assay: Synergistic growth inhibition by analogue combinations (Table 2); assay type: cell-based, human; conditions: footnote of Table 2
Protocol: All breast cancer cell lines were grown in IMEM supplemented with 10% fetal bovine serum, HEPES 20 mM, penicillin-streptomycin, and extra glutamine. Colon carcinoma cell lines were grown in EMEM supplemented with 10% FBS, EMEM, NEAA, HEPES 20 mM, extra glutamine, and penicillin-streptomycin. The cells were grown at 37° C. in humidified incubators in an atmosphere of 5% CO2.
For cell growth experiments, 2-3×10^5 cells/60 mm dish were seeded, and 24 hours later (Day 0), the medium was removed, and fresh medium and the additives were added then and every 48 hours thereafter. The compounds of the present invention were added using 100X concentrated stock solutions. At desired times, cell counts in duplicate were performed on a Coulter counter after harvesting the cells with gentle trypsinization.
Synergism quotient was defined as the net growth inhibitory effect of the analogue combination divided by the sum of the net analogue effects on growth inhibition. A quotient of >1 indicates a synergistic effect, while a quotient of <1 indicates an antagonistic effect.
Synergism of growth inhibition was determined by
treatment of cells with C-6 analogues and C-8 analogues alone
and in combination at Day 0 and Day 2 and counting the cell
^a Data are expressed as percentage growth inhibition in reference to
the growth of untreated control cells and represent average values and
ranges (in parentheses) of duplicate cell counts on three or more separat
experiments. The values for percentage growth inhibition of each analogue
^b The synergism quotient was defined as previously described.

[2] = test system: RI and RII cAMP receptor proteins, LS-174T; assay: Photoaffinity labelling of cAMP receptor proteins (Table 10, FIG. 6); assay type: cell-based, human; conditions: 3 days, 8-Cl and N^6-benzyl 10 μM, dibutyryl 1 mM; for relative level of RI / relative level of RII: control RI = 1.0 O.D.
Protocol: (§1) Photoactivated incorporation of 8-N3 [^32 P] was performed as described below.
(§2) M is marker proteins of known molecular weight.
(§3) Each lane contained 50 micrograms protein for SDS-PAGE.
(§4) The incubations were carried out at 23° C. for 60 minutes in 96-well immunoplates. The reaction mixtures were then irradiated for 30 seconds at 254 nm, placing a Mineralite UVS-11 hand lamp directly onto the plate. The samples were mixed with 25 microliters of 3× sample buffer (3% SDS, 15% beta-mercaptoethanol, 30 mM Tris, 30% glycerol, 1% bromophenol blue saturated solution), boiled for 3 minutes, and centrifuged at 700 × g for five minutes. The samples containing 10-30 micrograms of protein were subjected to 0.05% SDS-12% PAGE. The gels were fixed, dried, and exposed to X-ray films overnight. The protein concentrations were determined by the method of Lowry et al., J. Biol. Chem. 193: 265-275, 1951, with bovine serum albumin as standard.
(§5) The levels of the receptor proteins are expressed relative to the RI level in the untreated control cells of MDA-MB-231 and LS-174T which are each set equal to 1.0 O.D.; the scale was expanded to differentiate the lower intensity bands.

[3] = test system: RI and RII cAMP receptor proteins, MDA-MB-231; assay: as above; assay type: cell-based, human; conditions: 3 days, 8-Cl and N^6-benzyl 10 μM, dibutyryl 1 mM; for relative level of RI / relative level of RII: control RI = 1.0 O.D.
Protocol: as §1, §2, §3, §4, §5

[4] = test system: p21 ras protein, MCF-7 cells; assay: Western blotting of p21 ras protein (Table 11, FIG. 7); assay type: cell-based, human; conditions: for p21 (Relative Level): 3 days, 8-Cl-cAMP 10 μM, 8-Cl-adenosine 5 μM, DBcAMP 500 μM, control = 1.0 O.D.; for p21 level: three days
Protocol: Western blotting of p21 protein was performed as described below. […] V is cell lysate from Ha-MuSV-transformed NIH3T3 clone 13-3B-4. M, marker proteins of known molecular weight.
Each lane contained 100 micrograms of protein for SDS-PAGE.
Cellular proteins present in cell extracts were separated by 12% SDS-PAGE and transferred to nitrocellulose sheets in transfer buffer (25 mM Tris, 192 mM glycine, 20% methanol, pH 7.4). Nitrocellulose sheets were washed and first incubated with 3% bovine serum albumin in NTE-NP40 (50 mM Tris-HCl, pH 7.5, 150 mM NaCl, 2 mM EDTA, 0.1% Nonidet P-40) for three hours at 37° C. and then sequentially incubated with medium containing p21 monoclonal antiserum Y13-259 directed against the Ha-MuSV-encoded p21 for sixteen hours at 4° C., rabbit anti-rat IgG for 2.5 hours in an ice water bath, and 5×10^5 cpm/ml ^125 I-protein A for one hour in an ice water bath. The nitrocellulose sheets were air dried and exposed to Kodak XAR film for 12-36 hours at -20° C. Comparison of the resulting autoradiograms with others in which normal rat serum was substituted for p21 monoclonal antibody permitted identification of p21. To provide a reference p21, cell lysates were prepared from NIH 3T3 clone 13-3B-4 that had been transfected with HaMuSV DNA.
The levels of p21 protein are expressed relative to the p21 level in the untreated control cells which is set equal to 1.0 O.D.

[5] = target: T1, Protein kinase type II (cAKII) (Bos taurus, UniProt P00515); assay: Protein kinase activation (Table 15); assay type: biochemical, bovine (heart); conditions: half-maximum activation; U. M.: unmeasurable
T1 construct: prepared from rabbit skeletal muscle and bovine heart; from tissue; host or cells: bovine heart
T1 sequence (P00515 2-401 limits assumed): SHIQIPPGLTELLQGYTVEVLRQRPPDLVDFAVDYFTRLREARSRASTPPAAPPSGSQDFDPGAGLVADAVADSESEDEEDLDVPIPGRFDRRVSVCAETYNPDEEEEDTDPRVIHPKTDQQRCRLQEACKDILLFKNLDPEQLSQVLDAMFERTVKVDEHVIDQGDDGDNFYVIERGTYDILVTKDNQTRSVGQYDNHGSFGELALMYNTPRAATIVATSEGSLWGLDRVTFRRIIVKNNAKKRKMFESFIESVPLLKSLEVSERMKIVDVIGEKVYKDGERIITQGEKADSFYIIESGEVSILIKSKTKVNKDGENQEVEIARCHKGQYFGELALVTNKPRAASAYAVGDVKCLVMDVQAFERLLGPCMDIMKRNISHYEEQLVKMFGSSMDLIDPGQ
Protocol: ATP to Kemptide as described by Ogreid et al., Eur. J. Biochem. 150: 219-227 (1985).
Protein kinases types I (cAKI) and II (cAKII) were
prepared from rabbit skeletal muscle and bovine heart,
respectively, as described in D.o slashed.skeland et al. (J. Biol.
of the protein kinase in Ogreid et al. (Eur. J. Biochem.

[6] = test system: four leukemic cell lines (HL-60, K-562, myc-K562, Molt-4); assay: Growth inhibition of leukemic cell lines; assay type: cell-based, human; conditions: Homo sapiens; leukemic cell lines, range
[7] = test system: RIα and RIIβ isoforms of the cAMP receptor protein; protein kinase type I and II; conditions: cited from earlier work
L1210 leukemia = assay: Life span of L1210-inoculated BDF1 mice (Table 7)
neuroblastoma cells = conditions: two contradicting studies; cited from earlier work
[8] = test system: spindle cell sarcoma with multiple metastasis; conditions: cited from earlier work
[9] = test system: mammary carcinomas induced by DMBA; conditions: treatment of hosts; cited from earlier work
[10] = no test described at this place

Compound	RII/RI [2]	relative level of RI [2]	relative level of RII [2]	RII/RI [3]	relative level of RI [3]	relative level of RII [3]	p21 (Relative Level) [4]	p21 level [4]	IC50 [6]	further results
Nc1ncnc2c1nc(Cl)n2[C@@H]1O[C@@H]2COP(=O)(O)O[C@H]2[C@H]1O [8-Cl-cAMP, 8-chloro-adenosine 3': 5'-monophosphate]	1.25	0.20 ± 0.02	0.25 ± 0.02	0.60	0.25 ± 0.03	0.15 ± 0.01	0.1 ± 0.01	markedly decreased level of p21	5 to 20 µM	percentage growth inhibition of each analogue when added alone [1]: 20%; Activation Constant (Ka), cAKII [5]: 1.0 × 10^-7; effect on protein kinase isozyme type I ([7]; literature): drastically downregulates type I protein kinase; effect on protein kinase isozyme type II ([7]; literature): upregulating type II protein kinase in its holoenzyme form; effect on RIIβ isoform [7, 10]: upregulates the RII β, isoform; effect on RIα isoform [7, 10]: downregulates the RIα isoform; antitumor effect (L1210 leukemia; 104 mg/kg bolus, seven consecutive days): no antitumor effect; increase in mean life span (L1210 leukemia; constant infusion 104 mg/kg/day, five days): 37%
CCCC(=O)Nc1ncnc2c1ncn2[C@@H]1O[C@@H]2COP(=O)(O)O[C@H]2[C@H]1OC(=O)CCC [DBcAMP, N^6, O^2' -dibutyryl-cAMP, reference compound]	0.19	0.80 ± 0.10	0.15 ± 0.02	0.07	1.0 ± 0.1	0.07 ± 0.01	0.8 ± 0.1	slight reduction in p21 level	500 to 1000 µM	tumorigenicity (neuroblastoma cells): decreased; also recorded: unaltered; tumor size ([8]; 3-6 mg/kg iv, five hours daily, days 1-9 and 47-56): The tumor size plateaued and even decreased during both infusion periods; tumor histology ([8]; biopsied on days 2, 14, and 60): evidence of differentiation; tumor biochemistry during growth arrest [9]: estrogen binding decreases whereas cAMP binding and cAMP-dependent protein kinase activity increase; also recorded: sharp reduction of the translated p21 protein
